Here are results for one compound from US8492328B2, “Biomarkers and methods for determining sensitivity to insulin growth factor-1 receptor modulators” (Bristol-Myers Squibb Company, priority 2007, dated 2013).

“Also recorded” adds a separate entry of the source.

Common to all, as to format: cell-based, human
One test deals with LAN-1. Kind of test: In vitro cellular proliferation assay ([3H]-thymidine incorporation). As to conditions: LAN-1 (Neuroblastoma). How it is done: (§1) All pediatric sarcoma and neuroblastoma cell lines were obtained from Dr. Lee Helman at NIH. All cell lines were grown in RPMI medium supplemented with Glutamax (Gibco/Invitrogen #61870-036), 10% inactivated fetal bovine serum (Gibco/Invitrogen #16140-071), 10 mM Hepes, penicillin and streptomycin.
(§2) Cells were plated at an optimized density for each cell line per well in 96-well microtiter Falcon plates, incubated overnight, and then exposed to a serial dilution of drug. After 72 hours incubation with drug at 37° C., cells were pulsed with 4 μCi/ml [6-3H] thymidine (Amersham Pharmacia Biotech, UK) for 3 hours, trypsinized, harvested onto UniFilter-96, GF/B plates (PerkinElmer, Boston, Mass.) and scintillation was measured on a TopCount NXT (Packard, Conn.). Results were expressed as an IC50, which is the drug concentration required to inhibit cell proliferation by 50% to that of untreated control cells. The mean IC50 and standard deviation (SD) from multiple tests for each cell line were calculated.

The next test relates to H2595. Described as above. As to conditions: H2595 (Melignant Pleural Mesothelioma). How it is done:
as §1, §2

For the next test, the system named is SHSY5Y. The test is described as above. As to conditions: SHSY5Y (Neuroblastoma). How it is done: as §1, §2
For the next test, the system named is H2052. The description is as above. As to conditions: H2052 (Melignant Pleural Mesothelioma). How it is done:
as §1, §2

Another test relates to SK-NSH. The description is as above. As to conditions: SK-NSH (Neuroblastoma). How it is done:
as §1, §2

The subject of a further test is Rh41 cells. Description: Gene expression profiling of cells with compound 1 treatment.
The test system of the next test is Rh36 cells. Kind of test: Gene and protein expression profiling of cells with compound 1 treatment. As to conditions: later time points, 36 and 72 hrs.

In the case of `Cc1cc(N2CCOCC2)cc2[nH]c(-c3c(NC[C@@H](O)c4cccc(Cl)c4)cc[nH]c3=O)nc12` [Compound 1, (S)-4-(2-(3-chlorophenyl)-2-hydroxyethylamino)-3-(4-methyl-6-morpholino-1H-benzo[d]imidazol-2-yl)-pyridin-2(1-H)-one], the IC50 in the test on LAN-1 (Homo sapiens, LAN1, 72 hours with drug, read-out: IC50) came to 136 nM; in the test with H2595 (Homo sapiens, NCI-H2595, 72 hours with drug, read-out: IC50) it was 5000 nM; in the test with SHSY5Y (Homo sapiens, SH-SY5Y, 72 hours with drug, read-out: IC50), 149 nM; in the test with H2052 (Homo sapiens, NCI-H2052, 72 hours with drug, read-out: IC50) it was 403 nM; with SK-NSH (Homo sapiens, SK-N-SH, 72 hours with drug, read-out: IC50) it was 196 nM. Moreover, the “Sensitivity Classification” value in the test with LAN-1 was “S (“S” means sensitive)”; in the test with H2595, “R (“R” means resistant to the corresponding compounds.)”; in the test with SHSY5Y it was “S (“S” means sensitive)”; in the test with H2052, “R (“R” means resistant to the corresponding compounds.)”; with SK-NSH, “S (“S” means sensitive)”. Further, the Ki-67 expression entry in the test on Rh41 cells (compound 1 treated cells) is given as “Remarkable but not complete decrease”. In the test with Rh41 cells (sensitive Rh41 cells), the “expression of programmed cell death 4 (PDCD4)” value is “up-regulated”. In the test on Rh41 cells (sensitive Rh41 cells, especially at 36 and 72 hours), the “expression level of survivin” value is listed as “significantly reduced”. Besides, in the test with Rh41 cells (sensitive cell Rh41), the “genes with significant expression changes upon the drug treatment” value is listed as 30%. Further, the “effect of drug on gene/protein expression” value in the test with Rh36 cells was “little to no effect; also recorded: little, to no effect”.
